According to patent US20210213104A1, “GLUCAGON AND GLP-1 CO-AGONISTS FOR THE TREATMENT OF CHRONIC KIDNEY DISEASE AND DIABETIC KIDNEY DISEASE IN TYPE 2 DIABETES” (MEDIMMUNE LIMITED, priority 2020, published 2021):

Test system: subjects with T2DM and renal impairment
Assay: Phase 2a: continuous glucose monitoring (CGM)
Format: in vivo, human
Conditions: ITT; for Percentage of time CGM Glucose in Clinically Significant Hypoglycemia (<54 mg/dL), Difference in LS Mean Change (vs Placebo) / Percentage of time CGM Glucose in Clinically Significant Hypoglycemia (<54 mg/dL), LS Mean Change / Average CGM Glucose Over 7-Day Periods, Difference in LS Mean Change (vs Placebo) / Average CGM Glucose Over 7-Day Periods, LS Mean Change / Percentage of time CGM Glucose in Hyperglycemia (>180 mg/dL), Difference in LS Mean Change (vs Placebo) / Percentage of time CGM Glucose in Hyperglycemia (>180 mg/dL), LS Mean Change / Percentage of time CGM Glucose in Hypoglycemia (<70 mg/dl), Difference in LS Mean Change (vs Placebo) / Percentage of time CGM Glucose in Hypoglycemia (<70 mg/dl), LS Mean Change / Average CGM Glucose Over 7-Day Periods, Change from Baseline to End of Dosing Period, Mean / Average CGM Glucose Over 7-Day Periods, Change from Baseline to End of Dosing Period, Median / Percentage of time CGM Glucose in Hyperglycemia (>180 mg/dL), Change from Baseline to End of Dosing Period, Mean / Percentage of time CGM Glucose in Hyperglycemia (>180 mg/dL), Change from Baseline to End of Dosing Period, Median: baseline Days −8 to −2; for Percentage of time CGM Glucose in Clinically Significant Hypoglycemia (<54 mg/dL), Difference in LS Mean Change (vs Placebo) / Percentage of time CGM Glucose in Clinically Significant Hypoglycemia (<54 mg/dL), LS Mean Change / Average CGM Glucose Over 7-Day Periods, Difference in LS Mean Change (vs Placebo) / Average CGM Glucose Over 7-Day Periods, LS Mean Change / Percentage of time CGM Glucose in Hyperglycemia (>180 mg/dL), Difference in LS Mean Change (vs Placebo) / Percentage of time CGM Glucose in Hyperglycemia (>180 mg/dL), LS Mean Change / Percentage of time CGM Glucose in Hypoglycemia (<70 mg/dl), Difference in LS Mean Change (vs Placebo) / Percentage of time CGM Glucose in Hypoglycemia (<70 mg/dl), LS Mean Change / Time in target range, LS Mean Change: ANCOVA
Procedure: Cotadutide was titrated from 50 μg up to 300 μg and administered once daily by subcutaneous (SC) injection over 32 days.
Cotadutide was administered at 50 μg once daily for 4 days, followed by 100 μg daily for 7 days, 200 μg daily for 7 days, and 300 μg daily for 14 days (n=20). Placebo was administered one daily for 32 days (n=20). Cotadutide and placebo were administered in the morning. Dosing commenced following predose baseline vital signs, blood tests (including HbA1c), an electrocardiogram (ECG), body weight measurement, and bioimpedance spectroscopy (BIS). Subjects then returned for daily dosing or remained overnight locally until Day 5, and thereafter, had visits at weekly intervals until a maintenance dose of 300 μg was established. Thus, Cotadutide or placebo was administered at the study site by study personal for the first four doses and on site on Days 5, 12, 19, and 32. At all other times, subjects preformed dosing at home.
A Freestyle Libre® Pro CGM device was used to measure interstitial glucose levels. […] Data generated by CGM was used at visits to adjust insulin doses and other treatments.
The CGM sensor, which is a small plastic circular device of 35 mm diameter and 5 mm depth, was applied to the back of the upper arm. Subjects wore the CGM sensor continuously up until the time of a sensor change, which was to occur within 14 days, and they were advised that they could bathe and shower, and swim in up to 3 m depth for up to 30 minutes while wearing the CGM sensor. When the CGM sensor was removed, a new CGM sensor could be reapplied, ideally close to the original site, but with the subject's site preference taken into account. CGM sensors were single-use only.
If a subject was unable to tolerate wearing the CGM sensor for the entire duration of the study, the sensor was removed; but the subject was to remain in the study with or without continued CGM and could instead be instructed to monitor capillary plasma glucose measurements four times per day (before meals and before bedtime) and record these levels in the diary provided.
Subjects underwent continuous glucose monitoring (CGM) starting from Day −14 to Day 40 (±5 days), with sensor changes within 14-day intervals. CGM readings were used to analyze change in average CGM glucose and glucose AUC7 d, coefficient of variation as a marker of glycemic variability, and time spent in target glucose range and hypoglycemia, to enable comparison across different dose levels.

[1] = 50 μg (Days 1 to 4, not 7 days)
[2] = 100 μg Dose (Days 5 to 11), Insulin Dose < 20 U/day
[3] = 100 μg Dose (Days 5 to 11), Insulin Dose ≥ 20 U/day
[4] = 100 μg Dose (Days 5 to 11), Total
[5] = 200 μg Dose (Days 12 to 18), Insulin Dose < 20 U/day
[6] = 200 μg Dose (Days 12 to 18), Insulin Dose ≥ 20 U/day
[7] = 200 μg Dose (Days 12 to 18), Total

## CCCCCCCCCCCCCCCC(=O)N[C@@H](CCC(=O)NCCCC[C@H](NC(=O)[C@H](CC(=O)O)NC(=O)[C@H](CO)NC(=O)[C@@H](NC(=O)[C@H](Cc1ccccc1)NC(=O)[C@@H](NC(=O)CNC(=O)[C@H](CCC(N)=O)NC(=O)[C@H](CO)NC(=O)[C@@H](N)Cc1c[nH]cn1)[C@@H](C)O)[C@@H](C)O)C(=O)N[C@@H](CO)C(=O)N[C@@H](CCC(=O)O)C(=O)N[C@@H](Cc1ccc(O)cc1)C(=O)N[C@@H](CC(C)C)C(=O)N[C@@H](CC(=O)O)C(=O)N[C@@H](CO)C(=O)N[C@@H](CCC(=O)O)C(=O)N[C@@H](CCCNC(=N)N)C(=O)N[C@@H](C)C(=O)N[C@@H](CCCNC(=N)N)C(=O)N[C@@H](CC(=O)O)C(=O)N[C@@H](Cc1ccccc1)C(=O)N[C@H](C(=O)N[C@@H](C)C(=O)N[C@@H](Cc1c[nH]c2ccccc12)C(=O)N[C@@H](CC(C)C)C(=O)N[C@@H](CCC(=O)O)C(=O)N[C@@H](C)C(=O)NCC(=O)NCC(=O)O)C(C)C)C(=O)O [Cotadutide]
[1]
  Percentage of time CGM Glucose in Clinically Significant Hypoglycemia (<54 mg/dL), Difference in LS Mean Change (vs Placebo): 5.28%
  Percentage of time CGM Glucose in Clinically Significant Hypoglycemia (<54 mg/dL), LS Mean Change: 4.79%
100 μg (Days 5 to 11)
  Average CGM Glucose Over 7-Day Periods, End of Dosing Period, Mean: 127.599 mg/dL
  Average CGM Glucose Over 7-Day Periods, End of Dosing Period, Median: 122.769 mg/dL
  Percentage of time CGM Glucose in Hyperglycemia (>180 mg/dL), End of Dosing Period, Mean: 10.46%
  Percentage of time CGM Glucose in Hyperglycemia (>180 mg/dL), End of Dosing Period, Median: 3.72%
  Average CGM Glucose Over 7-Day Periods, Difference in LS Mean Change (vs Placebo): -46.73 mg/dL
  Average CGM Glucose Over 7-Day Periods, LS Mean Change: -36.35 mg/dL
  Percentage of time CGM Glucose in Clinically Significant Hypoglycemia (<54 mg/dL), Difference in LS Mean Change (vs Placebo): 2.25%
  Percentage of time CGM Glucose in Clinically Significant Hypoglycemia (<54 mg/dL), LS Mean Change: 1.41%
  Percentage of time CGM Glucose in Hyperglycemia (>180 mg/dL), Difference in LS Mean Change (vs Placebo): −29.72%
  Percentage of time CGM Glucose in Hyperglycemia (>180 mg/dL), LS Mean Change: −24.62%
  Percentage of time CGM Glucose in Hypoglycemia (<70 mg/dl), Difference in LS Mean Change (vs Placebo): 2.80%
  Percentage of time CGM Glucose in Hypoglycemia (<70 mg/dl), LS Mean Change: 2.26%
  Average CGM Glucose Over 7-Day Periods, Change from Baseline to End of Dosing Period, Mean: -35.628 mg/dL
  Average CGM Glucose Over 7-Day Periods, Change from Baseline to End of Dosing Period, Median: -31.685 mg/dL
  Percentage of time CGM Glucose in Hyperglycemia (>180 mg/dL), Change from Baseline to End of Dosing Period, Mean: −24.45%
  Percentage of time CGM Glucose in Hyperglycemia (>180 mg/dL), Change from Baseline to End of Dosing Period, Median: −19.57%
[2]
  Time in target range, LS Mean Change: 26.25%
  Percentage of Time CGM Glucose Within Target Range (70-180 mg/dL), Mean: 94.44%
  Percentage of Time CGM Glucose Within Target Range (70-180 mg/dL), Median: 97.79%
  Time in target range, Change from Baseline (Days −8 to −2), Mean: 31.19%
  Time in target range, Change from Baseline (Days −8 to −2), Median: 33.99%
  Time in target range, Difference in LS Mean Change (vs Placebo): 44.84%
[3]
  Time in target range, LS Mean Change: 3.59%
  Percentage of Time CGM Glucose Within Target Range (70-180 mg/dL), Mean: 66.51%
  Percentage of Time CGM Glucose Within Target Range (70-180 mg/dL), Median: 77.04%
  Time in target range, Change from Baseline (Days −8 to −2), Mean: 2.53%
  Time in target range, Change from Baseline (Days −8 to −2), Median: 12.04%
  Time in target range, Difference in LS Mean Change (vs Placebo): 8.32%
[4]
  Time in target range, LS Mean Change: 12.25%
  Percentage of Time CGM Glucose Within Target Range (70-180 mg/dL), Mean: 75.82%
  Percentage of Time CGM Glucose Within Target Range (70-180 mg/dL), Median: 84.38%
  Time in target range, Change from Baseline (Days −8 to −2), Mean: 11.58%
  Time in target range, Change from Baseline (Days −8 to −2), Median: 14.94%
  Time in target range, Difference in LS Mean Change (vs Placebo): 22.74%
200 μg (Days 12 to 18)
  Average CGM Glucose Over 7-Day Periods, End of Dosing Period, Mean: 131.724 mg/dL
  Average CGM Glucose Over 7-Day Periods, End of Dosing Period, Median: 121.570 mg/dL
  Percentage of time CGM Glucose in Hyperglycemia (>180 mg/dL), End of Dosing Period, Mean: 14.77%
  Percentage of time CGM Glucose in Hyperglycemia (>180 mg/dL), End of Dosing Period, Median: 6.61%
  Average CGM Glucose Over 7-Day Periods, Difference in LS Mean Change (vs Placebo): -40.34 mg/dL
  Average CGM Glucose Over 7-Day Periods, LS Mean Change: -30.66 mg/dL
  Percentage of time CGM Glucose in Clinically Significant Hypoglycemia (<54 mg/dL), Difference in LS Mean Change (vs Placebo): 0.43%
  Percentage of time CGM Glucose in Clinically Significant Hypoglycemia (<54 mg/dL), LS Mean Change: −0.21%
  Percentage of time CGM Glucose in Hyperglycemia (>180 mg/dL), Difference in LS Mean Change (vs Placebo): −25.47%
  Percentage of time CGM Glucose in Hyperglycemia (>180 mg/dL), LS Mean Change: −19.24%
  Percentage of time CGM Glucose in Hypoglycemia (<70 mg/dl), Difference in LS Mean Change (vs Placebo): 0.86%
  Percentage of time CGM Glucose in Hypoglycemia (<70 mg/dl), LS Mean Change: −0.14%
  Average CGM Glucose Over 7-Day Periods, Change from Baseline to End of Dosing Period, Mean: -30.668 mg/dL
  Average CGM Glucose Over 7-Day Periods, Change from Baseline to End of Dosing Period, Median: -32.533 mg/dL
  Percentage of time CGM Glucose in Hyperglycemia (>180 mg/dL), Change from Baseline to End of Dosing Period, Mean: −19.36%
  Percentage of time CGM Glucose in Hyperglycemia (>180 mg/dL), Change from Baseline to End of Dosing Period, Median: −17.72%
[5]
  Time in target range, LS Mean Change: 21.04%
  Percentage of Time CGM Glucose Within Target Range (70-180 mg/dL), Mean: 89.01%
  Percentage of Time CGM Glucose Within Target Range (70-180 mg/dL), Median: 96.38%
  Time in target range, Change from Baseline (Days −8 to −2), Mean: 24.48%
  Time in target range, Change from Baseline (Days −8 to −2), Median: 23.79%
  Time in target range, Difference in LS Mean Change (vs Placebo): 25.01%
[6]
  Time in target range, LS Mean Change: 12.92%
  Percentage of Time CGM Glucose Within Target Range (70-180 mg/dL), Mean: 73.53%
  Percentage of Time CGM Glucose Within Target Range (70-180 mg/dL), Median: 79.59%
  Time in target range, Change from Baseline (Days −8 to −2), Mean: 11.20%
  Time in target range, Change from Baseline (Days −8 to −2), Median: 11.27%
  Time in target range, Difference in LS Mean Change (vs Placebo): 18.72%
[7]
  Time in target range, LS Mean Change: 15.62%
  Percentage of Time CGM Glucose Within Target Range (70-180 mg/dL), Mean: 78.69%
  Percentage of Time CGM Glucose Within Target Range (70-180 mg/dL), Median: 80.69%
  Time in target range, Change from Baseline (Days −8 to −2), Mean: 15.39%
  Time in target range, Change from Baseline (Days −8 to −2), Median: 14.44%
  Time in target range, Difference in LS Mean Change (vs Placebo): 20.96%
